Assay results reported in ChEMBL document CHEMBL1201862, “PubChem BioAssay data set” (2004).
The source made the active and inactive calls.

Legend:
Galanin receptor type 3 = Galanin receptor type 3 (Homo sapiens, UniProt O60755); test: Fluorescence-based cell-based primary high throughput dose response assay to identify antagonists of the Galanin Receptor 3 (GalR3).; type: functional
cells = type: functional, cell-based; conditions: HEK-CNG
Cytochrome P450 2D6 = Cytochrome P450 2D6 (Homo sapiens, UniProt P10635);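 further: CYP2D6 member of a cytochrome P450 panel assay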
Chain of Cytochrome P450 2D6 (P10635 whole entry): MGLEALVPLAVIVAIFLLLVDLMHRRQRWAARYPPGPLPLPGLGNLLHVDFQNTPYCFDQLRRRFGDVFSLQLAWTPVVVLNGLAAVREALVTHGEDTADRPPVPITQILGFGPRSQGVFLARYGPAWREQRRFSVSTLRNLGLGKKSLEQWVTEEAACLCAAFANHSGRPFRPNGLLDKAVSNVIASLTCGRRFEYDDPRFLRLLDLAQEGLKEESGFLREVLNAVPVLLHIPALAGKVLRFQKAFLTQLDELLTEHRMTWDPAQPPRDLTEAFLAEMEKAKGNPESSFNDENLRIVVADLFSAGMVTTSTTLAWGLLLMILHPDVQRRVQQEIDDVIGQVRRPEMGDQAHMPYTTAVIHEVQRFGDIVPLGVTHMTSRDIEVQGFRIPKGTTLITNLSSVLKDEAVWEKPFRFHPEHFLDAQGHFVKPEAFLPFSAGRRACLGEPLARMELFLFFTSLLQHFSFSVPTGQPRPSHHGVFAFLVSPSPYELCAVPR

Cytochrome P450 2C9 = Cytochrome P450 2C9 (Homo sapiens, UniProt P11712)
Chain of Cytochrome P450 2C9 (P11712 whole entry): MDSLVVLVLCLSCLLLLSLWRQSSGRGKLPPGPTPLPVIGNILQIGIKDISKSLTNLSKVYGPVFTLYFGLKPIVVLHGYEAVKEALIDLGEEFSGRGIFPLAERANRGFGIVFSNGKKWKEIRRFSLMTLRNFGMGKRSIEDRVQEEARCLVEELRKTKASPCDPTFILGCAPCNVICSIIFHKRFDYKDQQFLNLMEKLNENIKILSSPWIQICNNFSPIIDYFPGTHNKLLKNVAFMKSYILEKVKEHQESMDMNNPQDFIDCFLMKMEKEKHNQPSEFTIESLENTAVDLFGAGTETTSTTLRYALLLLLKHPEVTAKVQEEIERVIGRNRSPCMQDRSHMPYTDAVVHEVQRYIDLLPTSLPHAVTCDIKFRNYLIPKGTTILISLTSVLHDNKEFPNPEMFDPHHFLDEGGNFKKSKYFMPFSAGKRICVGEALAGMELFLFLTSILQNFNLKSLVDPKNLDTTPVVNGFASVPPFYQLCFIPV

[1] = HEK293T cell cytotoxicity, dose response, cytotoxicity control for HIV Vif inhibitor project, cherry-picks (AID 652208); type: functional, cell-based
[2] = target: Nuclear receptor subfamily 5 group A member 2 (Homo sapiens, UniProt O00482); type: functional, cell-based;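 further: HEK293T cells transfected with LRH-1 and a StAR promoter luciferase reporter; potency for inhibitors that lower LRH-1 driven reporter light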
Chain of Nuclear receptor subfamily 5 group A member 2 (O00482 whole entry): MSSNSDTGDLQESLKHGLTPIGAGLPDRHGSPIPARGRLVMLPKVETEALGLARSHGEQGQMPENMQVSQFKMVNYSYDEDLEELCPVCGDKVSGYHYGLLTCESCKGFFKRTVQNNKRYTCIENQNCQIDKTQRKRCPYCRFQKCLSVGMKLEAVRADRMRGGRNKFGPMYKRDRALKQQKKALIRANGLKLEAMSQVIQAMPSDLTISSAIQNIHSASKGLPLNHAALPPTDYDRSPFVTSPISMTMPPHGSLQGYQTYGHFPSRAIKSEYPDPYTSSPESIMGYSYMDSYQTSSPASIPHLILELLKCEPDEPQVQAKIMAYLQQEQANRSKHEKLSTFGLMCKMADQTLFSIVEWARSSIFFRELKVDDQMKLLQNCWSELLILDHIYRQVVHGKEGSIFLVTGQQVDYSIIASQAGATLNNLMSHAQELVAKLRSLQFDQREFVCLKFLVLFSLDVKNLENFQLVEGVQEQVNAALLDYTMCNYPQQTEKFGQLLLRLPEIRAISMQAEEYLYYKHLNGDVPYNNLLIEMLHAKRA

Steroidogenic factor 1 = Steroidogenic factor 1 (Homo sapiens, UniProt Q13285); test: Counterscreen for inverse agonists of the liver receptor homolog-1 (LRH-1; NR5A2): Luminescence-based cell-based high throughput dose response assay to identify inverse agonists of the Steroidogenic Factor 1 Nuclear Receptor (SF1; NR5A1).; type: functional
Chain of Steroidogenic factor 1 (Q13285 whole entry): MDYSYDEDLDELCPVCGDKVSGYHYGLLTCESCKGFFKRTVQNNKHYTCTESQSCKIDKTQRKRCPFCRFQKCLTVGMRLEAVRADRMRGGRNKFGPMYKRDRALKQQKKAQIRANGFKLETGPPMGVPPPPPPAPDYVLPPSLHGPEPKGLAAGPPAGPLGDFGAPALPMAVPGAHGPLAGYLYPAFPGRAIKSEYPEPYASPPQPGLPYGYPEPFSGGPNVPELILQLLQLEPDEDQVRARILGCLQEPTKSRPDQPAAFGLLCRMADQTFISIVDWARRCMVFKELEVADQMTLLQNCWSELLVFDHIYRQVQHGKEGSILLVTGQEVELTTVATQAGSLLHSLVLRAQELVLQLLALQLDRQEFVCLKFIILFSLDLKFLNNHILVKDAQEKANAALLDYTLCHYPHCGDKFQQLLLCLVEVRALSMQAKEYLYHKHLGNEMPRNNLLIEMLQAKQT

[3] = StAR promoter reporter inhibition counter-screen, dose response, counter-screen for LRH-1 inverse agonist project, cell-based, luminescence, luciferase reporter (AID 651969); type: functional
[4] = LMP1-driven NF-kB reporter inhibition, dose response, cell-based, luciferase reporter, luminescence, dry powder, set 2 (AID 624376); type: functional
fMet-Leu-Phe receptor = fMet-Leu-Phe receptor (Homo sapiens, UniProt P21462); test: FPR ligands, dose response (AID 519); type: functional
Chain of fMet-Leu-Phe receptor (P21462 whole entry): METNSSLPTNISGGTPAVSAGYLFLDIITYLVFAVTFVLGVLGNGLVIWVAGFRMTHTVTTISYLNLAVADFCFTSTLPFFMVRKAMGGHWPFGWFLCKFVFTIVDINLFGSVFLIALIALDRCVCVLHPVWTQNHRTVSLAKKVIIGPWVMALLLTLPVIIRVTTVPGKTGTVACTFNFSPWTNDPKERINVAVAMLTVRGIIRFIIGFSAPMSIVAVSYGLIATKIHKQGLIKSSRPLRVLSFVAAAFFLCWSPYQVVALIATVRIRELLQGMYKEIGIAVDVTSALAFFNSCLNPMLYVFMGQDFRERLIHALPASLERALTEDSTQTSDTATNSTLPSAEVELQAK

[5] = target: T1, Sentrin-specific protease 8 (Homo sapiens, UniProt Q96LD8); type: functional
T1 sequence (Q96LD8 whole entry): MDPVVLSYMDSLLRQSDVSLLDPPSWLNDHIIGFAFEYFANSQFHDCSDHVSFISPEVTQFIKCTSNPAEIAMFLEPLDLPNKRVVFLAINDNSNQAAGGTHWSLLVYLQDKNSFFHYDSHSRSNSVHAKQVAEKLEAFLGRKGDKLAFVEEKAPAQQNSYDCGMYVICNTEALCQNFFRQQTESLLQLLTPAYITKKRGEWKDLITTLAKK

[6] = target: T1, Sentrin-specific protease 8; type: functional; remark: listed apart in the source
[7] = miR-122 activators in hepatoma reporter cells, dose response, cell-based, Huh7 psiCHECK-miR122, Renilla luciferase, cherry-picked (AID 651956); type: functional;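 further: huh7 hepatoma cells stably carrying a psiCHECK-2 miR-122 sensor plasmid; renilla luciferase signal reporting endogenous miR-122 activity after 48 h compound exposure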
Albumin = Albumin (Bos taurus, UniProt P02769); test: Counterscreen for inhibitors of T-cell receptor (TCR)-CD3 interaction: Fluorescence-based biochemical high throughput dose response assay to identify inhibitors of T-cell receptor (TCR)-CD3 interaction using a TAMRA-labeled BSA probe.; type: functional
Chain of Albumin (P02769 whole entry): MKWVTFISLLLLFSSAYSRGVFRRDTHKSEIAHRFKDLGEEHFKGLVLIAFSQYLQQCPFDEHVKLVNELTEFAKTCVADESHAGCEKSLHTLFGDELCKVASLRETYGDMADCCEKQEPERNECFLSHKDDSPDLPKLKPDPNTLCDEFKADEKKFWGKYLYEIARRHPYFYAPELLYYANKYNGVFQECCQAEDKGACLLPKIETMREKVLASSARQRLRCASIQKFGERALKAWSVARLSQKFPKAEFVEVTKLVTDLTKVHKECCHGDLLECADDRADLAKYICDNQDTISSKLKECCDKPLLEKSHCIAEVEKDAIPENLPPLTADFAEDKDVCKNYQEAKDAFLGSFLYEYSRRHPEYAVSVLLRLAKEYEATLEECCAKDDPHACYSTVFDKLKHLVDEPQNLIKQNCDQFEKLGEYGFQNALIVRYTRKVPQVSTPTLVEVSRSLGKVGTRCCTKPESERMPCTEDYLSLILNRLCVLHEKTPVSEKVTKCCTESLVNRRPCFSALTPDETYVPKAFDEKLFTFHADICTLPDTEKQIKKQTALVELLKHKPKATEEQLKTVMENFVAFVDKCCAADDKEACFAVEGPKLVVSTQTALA

[8] = target: DNA repair and recombination protein RAD54-like (Homo sapiens, UniProt Q92698); test: inhibitors of human RAD54 branch migration, confirmation, biochemical, fluorescence, cherry-picked samples, dose series (AID 651657); type: functional
Chain of DNA repair and recombination protein RAD54-like (Q92698 whole entry): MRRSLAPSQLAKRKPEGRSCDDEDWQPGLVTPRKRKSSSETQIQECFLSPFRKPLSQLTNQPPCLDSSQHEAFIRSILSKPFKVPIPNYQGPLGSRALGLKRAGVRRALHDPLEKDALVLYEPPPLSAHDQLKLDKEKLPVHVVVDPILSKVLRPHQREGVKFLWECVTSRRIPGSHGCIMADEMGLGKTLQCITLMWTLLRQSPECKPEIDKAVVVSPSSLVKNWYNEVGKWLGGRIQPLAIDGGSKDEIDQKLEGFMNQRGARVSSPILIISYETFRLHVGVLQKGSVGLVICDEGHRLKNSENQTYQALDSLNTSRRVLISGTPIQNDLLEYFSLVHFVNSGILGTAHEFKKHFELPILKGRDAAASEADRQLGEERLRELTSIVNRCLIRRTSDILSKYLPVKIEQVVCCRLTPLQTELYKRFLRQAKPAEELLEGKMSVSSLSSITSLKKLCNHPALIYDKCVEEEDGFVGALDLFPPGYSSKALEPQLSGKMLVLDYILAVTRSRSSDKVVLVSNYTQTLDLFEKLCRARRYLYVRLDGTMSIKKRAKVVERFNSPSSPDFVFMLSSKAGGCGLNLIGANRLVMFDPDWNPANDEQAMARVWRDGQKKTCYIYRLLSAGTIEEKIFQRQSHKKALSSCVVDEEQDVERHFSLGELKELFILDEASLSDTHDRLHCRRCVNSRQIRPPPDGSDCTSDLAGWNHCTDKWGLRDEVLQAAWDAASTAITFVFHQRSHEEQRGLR

[9] = target: T2, DNA repair protein RAD52 homolog (Homo sapiens, UniProt P43351); type: functional, biochemical
T2 sequence (P43351 whole entry): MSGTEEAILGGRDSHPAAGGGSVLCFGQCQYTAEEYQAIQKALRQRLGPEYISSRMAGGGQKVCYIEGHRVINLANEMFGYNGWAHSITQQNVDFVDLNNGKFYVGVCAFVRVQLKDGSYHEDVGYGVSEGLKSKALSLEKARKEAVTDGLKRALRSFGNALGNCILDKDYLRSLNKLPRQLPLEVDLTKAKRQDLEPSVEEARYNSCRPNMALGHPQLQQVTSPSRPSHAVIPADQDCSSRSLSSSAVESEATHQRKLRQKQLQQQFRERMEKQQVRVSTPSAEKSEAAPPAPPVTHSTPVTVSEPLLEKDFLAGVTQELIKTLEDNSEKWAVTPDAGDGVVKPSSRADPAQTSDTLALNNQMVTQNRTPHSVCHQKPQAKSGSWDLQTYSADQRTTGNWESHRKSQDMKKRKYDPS

[10] = cytotoxicity in HEK-293T cells, dose response, cytotoxicity control for TCR NF-kB inhibitor project, luminescence, T-cell screen hits (AID 489026); type: functional, cell-based;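 further: cells exposed to compound about 14 hours before the viability readout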
INS1 = test: beta cell apoptosis inhibitors, cytokine rescue, dose response, luminescence, retest (AID 449756); type: functional, cell-based; conditions: Rattus norvegicus;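 further: cell death triggered by IL-1 beta plus TNF-alpha plus IFN-gamma mixture; protective hits raise ATP signal compared with cytokine alone wells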
[11] = target: COUP transcription factor 2 (Homo sapiens, UniProt P24468); test: Luminescence-based cell-based high throughput dose response assay to identify inhibitors of COUP-TFII (NR2F2).; type: functional;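 further: HEK293 cells transiently cotransfected with COUP-TFII expression vector and reporter; luciferase reporter luminescence driven by COUP-TFII from the pX2-168 reporter plasmid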
Chain of COUP transcription factor 2 (P24468 whole entry): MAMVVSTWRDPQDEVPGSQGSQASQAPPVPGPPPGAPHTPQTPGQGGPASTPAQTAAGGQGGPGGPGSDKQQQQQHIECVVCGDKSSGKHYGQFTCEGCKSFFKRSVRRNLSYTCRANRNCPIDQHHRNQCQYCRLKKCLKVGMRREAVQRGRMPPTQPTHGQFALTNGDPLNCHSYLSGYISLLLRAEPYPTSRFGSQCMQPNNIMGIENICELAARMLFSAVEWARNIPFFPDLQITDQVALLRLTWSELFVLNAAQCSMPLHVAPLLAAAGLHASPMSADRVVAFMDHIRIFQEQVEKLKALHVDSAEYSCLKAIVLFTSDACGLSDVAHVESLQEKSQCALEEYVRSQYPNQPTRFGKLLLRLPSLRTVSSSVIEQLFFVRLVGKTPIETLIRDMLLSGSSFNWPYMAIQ

[12] = target: T3, Heat shock factor protein 1 (Mus musculus, UniProt P38532); test: HSF1 potentiators in luciferase reporter cells, confirmation, cell-based, NIH3T3, luminescence, dose retest (AID 435004); type: functional;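 further: stress induced by proteasome inhibitor MG132 added 30 min after compound; luciferase reporter driven by HSF1 response element in NIH3T3 cells; actives raise luminescence as potentiators of the MG132 stress response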
T3 sequence (P38532 whole entry): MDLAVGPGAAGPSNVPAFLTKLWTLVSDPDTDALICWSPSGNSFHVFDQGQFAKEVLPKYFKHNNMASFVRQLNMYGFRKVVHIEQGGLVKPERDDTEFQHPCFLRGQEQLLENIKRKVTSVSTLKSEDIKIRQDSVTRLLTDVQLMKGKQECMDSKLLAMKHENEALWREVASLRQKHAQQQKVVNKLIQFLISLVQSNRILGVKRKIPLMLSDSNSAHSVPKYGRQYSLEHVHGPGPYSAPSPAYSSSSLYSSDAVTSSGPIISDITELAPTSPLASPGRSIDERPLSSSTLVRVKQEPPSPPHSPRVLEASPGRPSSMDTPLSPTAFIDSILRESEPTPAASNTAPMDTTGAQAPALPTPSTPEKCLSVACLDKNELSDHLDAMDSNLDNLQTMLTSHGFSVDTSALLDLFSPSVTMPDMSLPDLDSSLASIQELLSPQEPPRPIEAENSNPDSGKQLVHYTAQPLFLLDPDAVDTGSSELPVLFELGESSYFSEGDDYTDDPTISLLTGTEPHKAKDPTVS

Hexokinase HKDC1 = target: T4, Hexokinase HKDC1 (Homo sapiens, UniProt Q2TB90); test: HKDC1 hexokinase activators, dose response, biochemical, W721R variant (AID 504730); type: functional
T4 sequence (Q2TB90 whole entry): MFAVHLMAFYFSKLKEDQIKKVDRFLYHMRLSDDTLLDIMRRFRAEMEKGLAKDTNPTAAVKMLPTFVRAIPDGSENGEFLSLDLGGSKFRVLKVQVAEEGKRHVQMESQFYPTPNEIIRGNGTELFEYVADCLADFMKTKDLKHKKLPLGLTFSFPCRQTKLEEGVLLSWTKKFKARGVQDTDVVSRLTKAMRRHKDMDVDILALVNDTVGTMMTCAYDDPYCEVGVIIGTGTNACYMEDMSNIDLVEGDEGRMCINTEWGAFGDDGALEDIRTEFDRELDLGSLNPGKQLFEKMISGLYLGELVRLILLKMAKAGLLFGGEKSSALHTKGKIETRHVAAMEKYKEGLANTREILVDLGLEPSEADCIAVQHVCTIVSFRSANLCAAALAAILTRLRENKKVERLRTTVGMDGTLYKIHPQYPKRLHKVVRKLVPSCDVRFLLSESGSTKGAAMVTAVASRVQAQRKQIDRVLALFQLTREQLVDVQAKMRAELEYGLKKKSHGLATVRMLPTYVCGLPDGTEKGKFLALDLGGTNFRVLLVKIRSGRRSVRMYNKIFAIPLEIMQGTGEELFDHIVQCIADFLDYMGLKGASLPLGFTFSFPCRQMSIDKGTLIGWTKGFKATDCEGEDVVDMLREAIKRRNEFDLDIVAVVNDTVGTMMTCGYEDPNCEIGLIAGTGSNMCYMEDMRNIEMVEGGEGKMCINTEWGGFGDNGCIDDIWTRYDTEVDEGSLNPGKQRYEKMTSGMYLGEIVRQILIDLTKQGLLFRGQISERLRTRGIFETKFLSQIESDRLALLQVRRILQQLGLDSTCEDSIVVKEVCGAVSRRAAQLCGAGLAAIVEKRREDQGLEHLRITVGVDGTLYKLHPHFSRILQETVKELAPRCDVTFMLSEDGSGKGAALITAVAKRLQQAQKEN

Hexokinase-1 = target: T5, Hexokinase-1 (Homo sapiens, UniProt P19367); test: hexokinase 1 activators, dose response, selectivity assay for HKDC1 activator project, biochemical (AID 504762); type: functional
T5 sequence (P19367 whole entry): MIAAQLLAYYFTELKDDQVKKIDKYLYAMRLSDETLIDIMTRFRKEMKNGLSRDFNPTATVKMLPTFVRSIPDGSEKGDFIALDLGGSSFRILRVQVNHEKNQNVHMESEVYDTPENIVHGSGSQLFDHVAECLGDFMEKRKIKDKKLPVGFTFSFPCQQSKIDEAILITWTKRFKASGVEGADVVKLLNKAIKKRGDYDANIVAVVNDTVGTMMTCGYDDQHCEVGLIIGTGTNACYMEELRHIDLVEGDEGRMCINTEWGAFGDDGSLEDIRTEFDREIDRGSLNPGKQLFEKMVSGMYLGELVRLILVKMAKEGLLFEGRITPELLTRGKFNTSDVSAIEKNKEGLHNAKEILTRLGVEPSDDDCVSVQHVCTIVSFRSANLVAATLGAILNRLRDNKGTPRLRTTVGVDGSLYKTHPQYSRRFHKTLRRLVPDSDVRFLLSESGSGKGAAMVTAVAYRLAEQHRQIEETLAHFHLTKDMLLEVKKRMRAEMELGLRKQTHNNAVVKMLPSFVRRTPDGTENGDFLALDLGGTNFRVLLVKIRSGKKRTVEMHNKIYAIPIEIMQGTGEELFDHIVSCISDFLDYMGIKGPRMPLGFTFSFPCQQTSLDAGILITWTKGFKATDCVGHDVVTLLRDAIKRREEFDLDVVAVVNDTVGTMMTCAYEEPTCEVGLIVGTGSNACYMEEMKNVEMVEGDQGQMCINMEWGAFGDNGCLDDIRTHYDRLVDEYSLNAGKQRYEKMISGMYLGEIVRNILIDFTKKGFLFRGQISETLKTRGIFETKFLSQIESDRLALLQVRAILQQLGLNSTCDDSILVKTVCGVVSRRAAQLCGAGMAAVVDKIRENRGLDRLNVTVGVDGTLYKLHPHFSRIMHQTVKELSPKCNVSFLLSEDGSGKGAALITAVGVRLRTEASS

[13] = target: Tyrosine-protein phosphatase non-receptor type 11 (Homo sapiens, UniProt Q06124); test: SHP2 phosphatase inhibition, dose response, selectivity assay for STEP inhibitor project, biochemical (AID 602367); type: functional; conditions: read-out: IC50_Mean
[14] = target: Tyrosine-protein phosphatase non-receptor type 5 (Homo sapiens, UniProt P54829); test: STEP phosphatase inhibitors, confirmation, biochemical, fluorescence intensity, uHTS hits (AID 602372); type: functional; conditions: read-out: IC50_Mean
[15] = target: Dual specificity protein phosphatase 3 (Homo sapiens, UniProt P51452); test: VHR phosphatase inhibition, dose response, selectivity assay for STEP inhibitor project, biochemical (AID 602374); type: functional; conditions: read-out: IC50_Mean
Chain of Dual specificity protein phosphatase 3 (P51452 whole entry): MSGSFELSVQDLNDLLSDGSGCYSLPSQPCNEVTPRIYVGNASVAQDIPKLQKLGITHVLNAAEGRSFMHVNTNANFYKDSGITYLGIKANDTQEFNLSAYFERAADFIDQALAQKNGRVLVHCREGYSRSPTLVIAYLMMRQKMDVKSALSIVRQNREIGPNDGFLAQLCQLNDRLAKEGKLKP

Chain of Galanin receptor type 3 (O60755 whole entry): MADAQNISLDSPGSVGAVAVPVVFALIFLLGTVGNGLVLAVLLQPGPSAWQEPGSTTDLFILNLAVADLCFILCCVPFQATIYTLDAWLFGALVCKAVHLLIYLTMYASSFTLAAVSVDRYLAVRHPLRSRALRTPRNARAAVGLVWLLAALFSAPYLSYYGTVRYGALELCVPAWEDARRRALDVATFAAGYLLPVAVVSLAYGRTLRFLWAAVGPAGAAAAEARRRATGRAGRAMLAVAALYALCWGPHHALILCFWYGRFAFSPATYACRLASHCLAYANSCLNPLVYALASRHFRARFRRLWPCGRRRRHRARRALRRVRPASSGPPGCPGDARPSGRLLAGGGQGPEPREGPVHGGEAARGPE

## Cc1nc2sc(C#N)c(N)c2c2c1CCCC2
Galanin receptor type 3
  IC50: > 29.9 µM (inactive)
cells
  EC50: > 29.9 µM (inactive)
Cytochrome P450 2D6
  AC50: 0.398 µM (inconclusive)
Cytochrome P450 2C9
  AC50: inconclusive

## COc1ccc(-c2coc3c(C(=O)Nc4cccc(C(C)=O)c4)cccc23)c(C)c1
[1]
  AC50: > 52 µM (inactive)

## CN(C)S(=O)(=O)c1cccc(C(=O)OCC(=O)Nc2ccc3c(c2)OCCO3)c1
[2]
  IC50: 90.5 µM (inactive)
Steroidogenic factor 1
  IC50: 3.18 µM (active)
[3]
  IC50: 35.9 µM (inactive)

## COc1cccc(S(=O)(=O)N(C)C[C@H]2Oc3cc(C4=CCCCC4)ccc3S(=O)(=O)N([C@@H](C)CO)C[C@@H]2C)c1
[4]
  AbsAC35: 64.1 µM

## COC(=O)c1ccc2c(=O)n(Cc3ccco3)c(SCC(=O)Nc3cc(C)on3)nc2c1
[1]
  AC50: 35.7 µM (active)

## COc1ccc(-c2nc(N3CCCC3)[nH]c(=O)c2C#N)cc1
fMet-Leu-Phe receptor
  Ki: > 66.7 µM (inactive)

## O=C(COC(=O)c1cc(S(=O)(=O)N2CCc3ccccc3C2)ccc1Cl)NCc1ccco1
[5]
  IC50: > 100 µM (inactive)
[6]
  IC50: 12.4 µM (active)

## C[C@@H]1CN([C@@H](C)CO)S(=O)(=O)c2ccc(-c3ccccc3)cc2O[C@@H]1CN(C)C(=O)c1ccc2c(c1)OCO2
[7]
  AC50: 16.3 µM (active)

## COc1ccc(Nc2nc(NCCN3CCOCC3)nc(Nc3ccc(OC)cc3)n2)cc1
[2]
  IC50: 5.3 µM (active)
Steroidogenic factor 1
  IC50: 4.32 µM (active)
[3]
  IC50: 12 µM (inactive)

## CNC(=S)N/N=C/c1cc(Br)cc(Br)c1O
Albumin
  IC50: > 94.1 µM (inactive)

## CCOC(=O)c1cnc2ccc(OCC)cc2c1NCCCN1CCOCC1
[8]
  AC50: 11.7 µM (active)
[9]
  AC50: 11.2 µM (active)

## O=C(CSc1nnc(Cn2nnc3ccccc32)o1)N(Cc1ccc(F)cc1)c1ccccc1
[10]
  IC50: > 80 µM (inactive)
INS1
  AC50: 4.43 µM (active)
Galanin receptor type 3
  IC50: 1.24 µM (active)
cells
  EC50: > 29.9 µM (inactive)
[11]
  IC50: 4.87 µM (active)

## CCOC(=O)c1c(NC(C)=O)sc2c(O)c(CN3CCN(CC)CC3)ccc12
[12]
  EC50: 55.8 µM (active)
[8]
  AC50: 32.1 µM (active)

## Cc1cc(NC(=O)CSc2nnc(Cn3c(=O)sc4ccccc43)n2-c2ccccc2C)no1
fMet-Leu-Phe receptor
  Ki: > 66.7 µM (inactive)

## CC(=NNC(=S)N1CC2CCC(CC2)C1)c1cccc(C)n1
Hexokinase HKDC1
  EC50: > 80 µM (inactive)
Hexokinase-1
  EC50: > 80 µM (inactive)
[13]
  IC50: 6.06 µM (active)
[14]
  IC50: > 80 µM (inactive)
[15]
  IC50: 7.77 µM (active)
